Patent US20260167615A1, “COMPOUNDS AND COMPOSITIONS AS GPR52 MODULATORS” (Neurocrine Biosciences, Inc., priority 2022, published 2026)

Molecular target: recombinant human GPR52 (Homo sapiens, UniProt Q9Y2T5)
Assay: HTRF cAMP assay, GPR52 activity (Example A)
Assay type: cell-based
Conditions: for EC50: average EC50 (n=1 to 15), Flp-In-CHO cells stably expressing recombinant human GPR52, cAMP HTRF, read-out: EC50 (N=); for Emax: maximum cAMP at 10 μM or 31.6 μM test compound, as percentage of Emax of control compound 4-(3-(3-fluoro-5-(trifluoromethyl)benzyl)-5-methyl-4,5-dihydro-1H-1,2,4-triazol-1-yl)-2-methylbenzamide
Outline: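 Flp-In CHO cells stably expressing human GPR52 (20,000/well) incubated 30 min at room temperature with compound, cAMP then quantified by competitive HTRF. EC50 from nonlinear fits of cAMP-transformed data normalized to positive control; Emax is top plateau at 10 or 31.6 μM, given as % of a reference agonist's Emax.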

Sequence of recombinant human GPR52 (Q9Y2T5 whole entry): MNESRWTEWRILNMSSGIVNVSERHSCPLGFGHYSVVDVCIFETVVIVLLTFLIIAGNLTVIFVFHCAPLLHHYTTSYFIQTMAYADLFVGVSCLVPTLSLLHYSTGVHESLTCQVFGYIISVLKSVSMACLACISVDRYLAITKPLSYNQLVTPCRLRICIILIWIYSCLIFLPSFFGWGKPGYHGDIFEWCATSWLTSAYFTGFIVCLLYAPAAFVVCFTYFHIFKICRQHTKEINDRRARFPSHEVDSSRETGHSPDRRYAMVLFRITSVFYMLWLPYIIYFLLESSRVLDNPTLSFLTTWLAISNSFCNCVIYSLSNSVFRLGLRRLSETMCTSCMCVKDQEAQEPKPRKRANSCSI

SMILES	EC50 [nM]	Emax [%]
Cc1cc(-c2cc(Oc3ccc4ncccc4c3)ccn2)ccc1C(N)=O [Example 74, 2-methyl-4-(4-(quinolin-6-yloxy)pyridin-2-yl)benzamide]	101 to 1000	95
CCc1cc(-c2cc(Oc3cnc4c(C(F)(F)F)nn(C)c4c3)ccn2)ccc1C(=O)NC [Example 61, 2-ethyl-N-methyl-4-(4-((1-methyl-3-(trifluoromethyl)-1H-pyrazolo[4,3-b]pyridin-6-yl)oxy)pyridin-2-yl)benzamide]	101 to 1000	81
Cc1cc(-c2cc(Oc3ccc4cnn(C)c4c3)cc(N)n2)ccc1C(N)=O [Example 21, 4-(6-amino-4-((1-methyl-1H-indazol-6-yl)oxy)pyridin-2-yl)-2-methylbenzamide]	101 to 1000	99
CCc1cc(-c2cc(Oc3cnc4c(c3)c(C)nn4C)ccn2)ccc1C(N)=O [Example 55, 4-(4-((1,3-dimethyl-1H-pyrazolo[3,4-b]pyridin-5-yl)oxy)pyridin-2-yl)-2-ethylbenzamide]	25 to 100	108
Cc1cc(-c2cc(Oc3cnc4cnn(C)c4c3)ccn2)ccc1C(N)=O [Example 12, 2-methyl-4-(4-((1-methyl-1H-pyrazolo[4,3-b]pyridin-6-yl)oxy)pyridin-2-yl)benzamide]	101 to 1000	103
CCc1cc(-c2cc(Oc3ccc4ncc(F)cc4c3)ccn2)ccc1C(N)=O [Example 95, 2-ethyl-4-(4-((3-fluoroquinolin-6-yl)oxy)pyridin-2-yl)benzamide]	101 to 1000	138
CCc1cc(-c2cc(Oc3cnc4c(F)nn(C)c4c3)ccn2)ccc1C(N)=O [Example 131, 2-ethyl-4-(4-((3-fluoro-1-methyl-1H-pyrazolo[4,3-b]pyridin-6-yl)oxy)pyridin-2-yl)benzamide]	101 to 1000	114
CCc1cc(-c2cc(Oc3cnc4c(c3)CCCO4)ccn2)ccc1C(N)=O [Example 123, 4-(4-((3,4-dihydro-2H-pyrano[2,3-b]pyridin-6-yl)oxy)pyridin-2-yl)-2-ethylbenzamide]	101 to 1000	88
Cc1cc(-c2cccc(Oc3cnc4c(C)nn(C)c4c3)c2)ccc1C(N)=O [Example 31, 3′-((1,3-dimethyl-1H-pyrazolo[4,3-b]pyridin-6-yl)oxy)-3-methyl-[1,1′-biphenyl]-4-carboxamide]	101 to 1000	88
Cn1ncc2ncc(Oc3ccnc(-c4ccc(C(N)=O)c(C(F)(F)F)c4)c3)cc21 [Example 33, 4-(4-((1-methyl-1H-pyrazolo[4,3-b]pyridin-6-yl)oxy)pyridin-2-yl)-2-(trifluoromethyl)benzamide]	101 to 1000	90
CCc1cc(-c2cc(Oc3cc(F)c4cnn(C)c4c3)ccn2)ccc1C(N)=O [Example 36, 2-ethyl-4-(4-((4-fluoro-1-methyl-1H-indazol-6-yl)oxy)pyridin-2-yl)benzamide]	< 25	105
CNC(=O)c1ccc(-c2cc(Oc3ccc4cnn(C)c4c3)ccn2)cc1C [Example 62, N,2-dimethyl-4-(4-((1-methyl-1H-indazol-6-yl)oxy)pyridin-2-yl)benzamide]	101 to 1000	84
CCc1cc(-c2cc(Oc3cnc4c(c3)c(C(F)(F)F)nn4C)ccn2)ccc1C(N)=O [Example 56, 2-ethyl-4-(4-((1-methyl-3-(trifluoromethyl)-1H-pyrazolo[3,4-b]pyridin-5-yl)oxy)pyridin-2-yl)benzamide]	25 to 100	100
NC(=O)c1ccc(-c2cc(Oc3ccc4ncccc4c3)ccn2)cc1C(F)(F)F [Example 75, 4-(4-(quinolin-6-yloxy)pyridin-2-yl)-2-(trifluoromethyl)benzamide]	101 to 1000	101
Cc1cc(-c2cc(Oc3cccc4c3cnn4C)ccn2)ccc1C(N)=O [Example 7, 2-methyl-4-(4-((1-methyl-1H-indazol-4-yl)oxy)pyridin-2-yl)benzamide]	1000 to 2000	68
Cn1ncc2ccc(Oc3ccnc(-c4ccc(C(N)=O)c(C(F)(F)F)c4)c3)cc21 [Example 47, 4-(4-((1-methyl-1H-indazol-6-yl)oxy)pyridin-2-yl)-2-(trifluoromethyl)benzamide]	101 to 1000	88
Cc1cc(-c2cc(Oc3ccc4cccnc4c3)ccn2)ccc1C(N)=O [Example 88, 2-methyl-4-(4-(quinolin-7-yloxy)pyridin-2-yl)benzamide]	101 to 1000	67
Cc1cc(-c2cc(Oc3cnc4ccc(Cl)cc4c3)ccn2)ccc1C(N)=O [Example 111, 4-(4-((6-chloroquinolin-3-yl)oxy)pyridin-2-yl)-2-methylbenzamide]	101 to 1000	88
CCc1cc(-c2cc(Oc3cnc4c(c3)c(F)nn4C)ccn2)ccc1C(N)=O [Example 130, 2-ethyl-4-(4-((3-fluoro-1-methyl-1H-pyrazolo[3,4-b]pyridin-5-yl)oxy)pyridin-2-yl)benzamide]	101 to 1000	137

SMILES	EC50 [nM]	Emax [%]
Cc1cc(-c2cc(Oc3ccc4c(C)nn(C)c4c3)cc(N)n2)ccc1C(N)=O [Example 19, 4-(6-amino-4-((1,3-dimethyl-1H-indazol-6-yl)oxy)pyridin-2-yl)-2-methylbenzamide]	101 to 1000	90
CCc1cc(-c2cc(Oc3cnc4c(F)cccc4c3)ccn2)ccc1C(N)=O [Example 102, 2-ethyl-4-(4-((8-fluoroquinolin-3-yl)oxy)pyridin-2-yl)benzamide]	101 to 1000	90
Cc1cc(-c2cc(Oc3ccc4c(c3)OC(F)(F)O4)ccn2)ccc1C(N)=O [Example 89, 4-(4-((2,2-difluorobenzo[d][1,3]dioxol-5-yl)oxy)pyridin-2-yl)-2-methylbenzamide]	101 to 1000	95
Cc1cc(-c2cc(Oc3ccc4cnccc4c3)ccn2)ccc1C(N)=O [Example 93, 4-(4-(isoquinolin-6-yloxy)pyridin-2-yl)-2-methylbenzamide]	101 to 1000	118
Cc1cc(-c2cc(Oc3ccc4cnn(C)c4c3)ccn2)ccc1C(N)=O [Example 43, 2-methyl-4-(4-((1-methyl-1H-indazol-6-yl)oxy)pyridin-2-yl)benzamide]	101 to 1000	103
CCc1cc(-c2cc(Oc3cnc4cnn(C)c4c3)ccn2)ccc1C(N)=O [Example 27, 2-ethyl-4-(4-((1-methyl-1H-pyrazolo[4,3-b]pyridin-6-yl)oxy)pyridin-2-yl)benzamide]	101 to 1000	99
Cc1nc2cc(Oc3ccnc(-c4ccc(C(N)=O)c(C)c4)c3)ccc2s1 [Example 86, 2-methyl-4-(4-((2-methylbenzo[d]thiazol-5-yl)oxy)pyridin-2-yl)benzamide]	101 to 1000	86
CCc1cc(-c2cc(Oc3cc(F)c4c(C)nn(C)c4c3)ccn2)ccc1C(N)=O [Example 38, 2-ethyl-4-(4-((4-fluoro-1,3-dimethyl-1H-indazol-6-yl)oxy)pyridin-2-yl)benzamide]	25 to 100	104
Cc1cc(-c2cc(Oc3cc(F)c4ncccc4c3)ccn2)ccc1C(N)=O [Example 98, 4-(4-((8-fluoroquinolin-6-yl)oxy)pyridin-2-yl)-2-methylbenzamide]	101 to 1000	120
Cc1cc(-c2cc(Oc3ccc4ccoc4c3)ccn2)ccc1C(N)=O [Example 87, 4-(4-(benzofuran-6-yloxy)pyridin-2-yl)-2-methylbenzamide]	101 to 1000	68
Cc1cc(-c2cc(Oc3cnc4c(F)c(F)ccc4c3)ccn2)ccc1C(N)=O [Example 116, 4-(4-((7,8-difluoroquinolin-3-yl)oxy)pyridin-2-yl)-2-methylbenzamide]	25 to 100	62
CCc1cc(-c2cc(Oc3cnc4c(C)nn(C)c4c3)ccn2)cc(F)c1C(N)=O [Example 34, 4-(4-((1,3-dimethyl-1H-pyrazolo[4,3-b]pyridin-6-yl)oxy)pyridin-2-yl)-2-ethyl-6-fluorobenzamide]	1000 to 2000	77
CCc1cc(-c2cc(Oc3cnc4c(C)nn(C)c4c3)cc(N)n2)ccc1C(N)=O [Example 16, 4-(6-amino-4-((1,3-dimethyl-1H-pyrazolo[4,3-b]pyridin-6-yl)oxy)pyridin-2-yl)-2-ethylbenzamide]	101 to 1000	107
Cc1cc(-c2cc(Oc3ccc4c(c3)c(F)nn4C)ccn2)ccc1C(N)=O [Example 129, 4-(4-((3-fluoro-1-methyl-1H-indazol-5-yl)oxy)pyridin-2-yl)-2-methylbenzamide]	101 to 1000	126
Cc1cc(-c2cc(Oc3cnc4cc(F)c(F)cc4c3)ccn2)ccc1C(N)=O [Example 114, 4-(4-((6,7-difluoroquinolin-3-yl)oxy)pyridin-2-yl)-2-methylbenzamide]	25 to 100	50
CCc1cc(-c2cccc(Oc3ccc4cnn(C)c4c3)c2)ccc1C(=O)NC [Example 65, 3-ethyl-N-methyl-3′-((1-methyl-1H-indazol-6-yl)oxy)-[1,1′-biphenyl]-4-carboxamide]	1000 to 2000	83
CCNC(=O)c1ccc(-c2cc(Oc3ccc4cnn(C)c4c3)ccn2)cc1C [Example 63, N-ethyl-2-methyl-4-(4-((1-methyl-1H-indazol-6-yl)oxy)pyridin-2-yl)benzamide]	101 to 1000	70
Cc1cc(-c2cc(Oc3ccc4c(c3)CCC4=O)ccn2)ccc1C(N)=O [Example 84, 2-methyl-4-(4-((1-oxo-2,3-dihydro-1H-inden-5-yl)oxy)pyridin-2-yl)benzamide]	101 to 1000	123
CCc1cc(-c2cc(Oc3ccc4ncccc4c3)ccn2)ccc1C(N)=O [Example 70, 2-ethyl-4-(4-(quinolin-6-yloxy)pyridin-2-yl)benzamide]	101 to 1000	126
